The record followed here is patent US5877174A, “2,3-diketopiperazine derivatives or their salts” (Toyama Chemical Co., Ltd., priority 1994, dated 1999).

The structures appear in SMILES notation. pIC50: −log10 of the molar value. Where a name gives a salt, the structure may show the parent alone.

The test system of the first data set is ddY strain male mice. Nature of the data set: Acute toxicity (intravenous, mice). In kind it is in vivo. The following applies: 300 mg/kg, intravenous (tail), physiological saline. The procedure:
A solution of the compound of Example 58 in physiological saline was intravenously administered to a group consisting of 5 ddY strain male mice (average body weight: 27.5 g) each, in the tails, whereby the acute toxicity of the compound was investigated. As a result, no mouse died at a dose of the test compound of 300 mg/kg.
As for `N=C(N)c1ccc(OCCCN2CCN(C(CC(=O)O)c3cccnc3)C(=O)C2=O)cc1` (stereo not shown) [Example 58, 3-[4-[3-(4-Amidinophenoxy)propyl]-2,3-dioxopiperazin-1-yl]-3-(pyridin-3-yl)propionic acid], the “acute toxicity (mortality)” value is listed as “no mouse died”.

Another data set has as its system human platelet aggregation. The data set is described as follows: Inhibitory effect on human platelet aggregation (ADP-induced, platelet-rich plasma, aggreometer). In kind it is cell-based. The following applies: 5×10^8 platelets/ml, ADP final concentration 3 μM, 37° C., 3 min preincubation, read-out: 50% inhibitory concentration (IC50). The procedure:
A mixture of blood collected from a human elbow vein and a 3.8% sodium citrate solution in the ratio of 9:1 (v/v) was centrifuged at room temperature to obtain platelet-rich plasma and platelet-poor plasma. Then, the platelet-rich plasma was diluted with the platelet-poor plasma to adjust the number of platelets to 5×10^8 platelets/ml. […] After 3 minutes, 18.75 μl of adenosine 5'-diphosphate (ADP) (final concentration: 3 μM) was added to the mixture and a change in the intensity of transmitted light caused by the aggregation was recorded with the lapse of time with an aggreometer.
For `N=C(N)c1ccc(S(=O)(=O)NCCCN2CCN(CC(=O)O)C(=O)C2=O)cc1` [105(2), [4-[3-(4-Amidinobenzenesulfonylamino)propyl]-2,3-dioxopiperazin-1-yl]aceticacid], the pIC50 was 6.02.
Turning to `N=C(N)c1ccc(OCCCN2CCN(CC(=O)O)C(=O)C2=O)cc1` [Example 10, [4-[3-(4-Amidinophenoxy)propyl]-2,3-dioxopiperazin-1yl]acetic acid hydrochloride], the pIC50 was 5.30.
As to `N=C(N)c1ccc(OCCCCCN2CCN(CC(=O)O)C(=O)C2=O)cc1` [Example 13], the pIC50 is 5.00.
Regarding `N=C(N)c1ccc(OCCCN2CCN(CCC(=O)O)C(=O)C2=O)cc1` [Example 15], the pIC50 is 5.33.
Consider `N=C(N)c1ccc(OCCN2CCN(CCCC(=O)O)C(=O)C2=O)cc1` [Example 16], for which the pIC50 is 5.66.
In the case of `N=C(N)c1ccc(OCCCn2ccn(CC(=O)O)c(=O)c2=O)cc1` [Example 17, [4-[3-(4-Amidinophenoxy)propyl]-1,2,3,4-tetrahydro-2,3-dioxopyrazin-1-yl]acetic acid hydrochloride], the pIC50 is 4.38.
Consider `N=C(N)c1ccc(OCCCCN2CCN(C(C(=O)O)c3ccccc3)C(=O)C2=O)cc1` (stereo not drawn) [Example 19, α-[4-[4-(4-Amidinophenoxy)butyl]-2,3-dioxopiperazin-1yl]-α-phenylacetic acid], for which the pIC50 was 6.85.
Consider `N=C(N)c1ccc(OCCCN2CCN(CC(Cc3ccc4c(c3)OCO4)C(=O)O)C(=O)C2=O)cc1` (stereo not shown) [Example 20, 2-[(1,3-Benzodioxol-5-yl)methyl]-3-[4-[3-(4-amidinophenoxy)propyl]-2,3-dioxopiperazin-1-yl]propionic acid], for which the pIC50 is 6.05.
Same read-out and setting: under `N=C(N)c1ccc(OCCCN2CCN(C(CC(=O)O)c3cccnc3)C(=O)C2=O)cc1` (stereo not shown) [Example 58, 3-[4-[3-(4-Amidinophenoxy)propyl]-2,3-dioxopiperazin-1-yl]-3-(pyridin-3-yl)propionic acid] stands 7.27; under `CC(CC(=O)O)N1CCN(CCCOc2ccc(C(=N)N)cc2)C(=O)C1=O` (stereo not shown) [Example 59, 3-[4-[3-(4-Amidinophenoxy)propyl]-2,3-dioxopiperazin-1-yl]-3-methylpropionic acid], 6.43.
For the molecule `N=C(N)c1ccc(OCCCN2CCN(C(CC(=O)O)c3cccs3)C(=O)C2=O)cc1` (stereo not shown) [Example 61], the pIC50 is 6.92.
On the same count and under the same terms, with `N=C(N)c1ccc(OCCCN2CCN(C(CC(=O)O)C(=O)O)C(=O)C2=O)cc1` (stereo not shown) [Example 62, 2-[4-[3-(4-Amidinophenoxy)propyl]-2,3-dioxopiperazin-1-yl]succinic acid] the figure was 5.49.
The same measure, in the same setting: under `COc1ccc(C(CC(=O)O)N2CCN(CCCOc3ccc(C(=N)N)cc3)C(=O)C2=O)cc1` (stereo not shown) [Example 64] stands 6.80; under `N=C(N)c1ccc(OCCCN2CCN(C(CC(=O)O)c3ccc(F)cc3)C(=O)C2=O)cc1` (stereo not shown) [Example 65], 6.54.
For `N=C(N)c1ccc(OCCCN2CCN(C(CC(=O)O)c3ccc4c(c3)OCO4)C(=O)C2=O)cc1` (stereo not shown) [Example 66, 3-[4-[3-(4-Amidinophenoxy)propyl]-2,3-dioxopiperazin-1-yl]-3-(1,3-benzodioxol-5-yl)propionic acid], the pIC50 is 6.85.
Same read-out and setting: with `N=C(N)c1ccc(OCCCN2CCN(C(CC(=O)O)c3ccco3)C(=O)C2=O)cc1` (stereo not shown) [Example 67] the figure was 6.24.
As for `N=C(N)c1ccc(OCCCN2CCN(C(CC(=O)O)c3ccc(F)cc3F)C(=O)C2=O)cc1` (stereo not shown) [Example 77], the pIC50 is 6.85.
Regarding `COc1cccc(C(CC(=O)O)N2CCN(CCCOc3ccc(C(=N)N)cc3)C(=O)C2=O)c1` (stereo not shown) [Example 78], the pIC50 was 6.82.
For `N=C(N)c1ccc(OCCCCN2CCN(C(CC(=O)O)c3cccnc3)C(=O)C2=O)cc1` (stereo not shown) [Example 79, 3-[4-[4-(4-Amidinophenoxy)butyl]-2,3-dioxopiperazin-1-yl]-3-(pyridin-3-yl)propionic acid], the pIC50 is 5.46.
Regarding `CCCCC(CC(=O)O)N1CCN(CCCOc2ccc(C(=N)N)cc2)C(=O)C1=O` (stereo not shown) [Example 82, 3-[4-[3-(4-Amidinophenoxy)propyl]-2,3-dioxopiperazin-1-yl]-3-(butyl)propionic acid], the pIC50 was 6.32.
Consider `N=C(N)c1ccc(OCCCN2CCN(C(CC(=O)O)C3CC3)C(=O)C2=O)cc1` (stereo not shown) [Example 83, 3-[4-[3-(4-Amidinophenoxy)propyl]-2,3-dioxopiperazin-1-yl]-3-(cyclopropyl)propionic acid], for which the pIC50 is 5.96.
Consider `N=C(N)c1ccc(OCCCN2CCN(C(CC(=O)O)c3cccc4ccccc34)C(=O)C2=O)cc1` (stereo not shown) [Example 85], for which the pIC50 is 6.54.
As to `N=C(N)c1ccc(OCCCN2CCN(CC(C(=O)O)c3ccccc3)C(=O)C2=O)cc1` (stereo not shown) [Example 87, 3-[4-[3-(4-Amidinophenoxy)propyl]-2,3-dioxopiperazin-1-yl]-2-phenylpropionic acid], the pIC50 is 6.28.
For `CCOC(=O)CC(c1cccnc1)N1CCN(CCCOc2ccc(C(=N)N)cc2)C(=O)C1=O` (stereo not shown) [Example 88, Ethyl 3-[4-[3-(4-amidinophenoxy)propyl]-2,3-dioxopiperazin-1yl]-3-(pyridin-3-yl)propionate hydrochloride], the pIC50 is 5.47.
Regarding `N=C(N)c1ccc(C(=O)NCCN2CCN(C(CC(=O)O)c3cccnc3)C(=O)C2=O)cc1` (stereo not shown) [Example 97, 3-[4-[2-(4-Amidinobenzoyl)aminoethyl]-2,3-dioxopiperazin-1yl]-3-(pyridin-3-yl)propionic acid], the pIC50 was 6.25.
With `N=C(N)c1ccc(C(=O)NCCN2CCN(CCC(=O)O)C(=O)C2=O)cc1` [Example 99], the pIC50 is 5.68.
Still for that read-out and setting: under `N=C(N)c1ccc(C(=O)NCCCN2CCN(CC(Cc3ccc4c(c3)OCO4)C(=O)O)C(=O)C2=O)cc1` (stereo not shown) [Example 102, 3-[4-[3-(4-Amidinobenzoylamino)propyl]-2,3-dioxopiperazin-1-yl]-2-[(1,3-benzodioxol-5-yl)methyl]-propionic acid] stands 6.30; under `N=C(N)c1ccc(C(=O)NCCN2CCN(CC(=O)O)C(=O)C2=O)cc1` [Example 103, [4-[2-(4-Amidinobenzoylamino)ethyl]-2,3-dioxopiperazin-1-yl]acetic acid], 5.72.
For the molecule `N=C(N)c1ccc(C(=O)NCCCN2CCN(CC(=O)O)C(=O)C2=O)cc1` [Example 104, [4-[3-(4-Amidinobenzoylamino)propyl)-2,3-dioxopiperazin-1-yl]acetic acid], the pIC50 is 6.10.
With `CC(C)(C)OC(=O)CN1CCN(CCCC(=O)Nc2ccc(C(=N)NC(=O)OCc3ccccc3)cc2)C(=O)C1=O` [Example 106, tert-Butyl [4-[4-(4-benzyloxycarbonylamidino-phenylamino) -4-oxobutyl]-2,3-dioxopiperazin-1-yl]acetate], the pIC50 is 6.00.
